Measurements taken from patent publication US12545681B2, “Compound used as RET kinase inhibitor and application thereof” (TYK Medicines, Inc., priority 2020, dated 2026).
Substitutions are numbered along the chain they refer to. Where two headings read alike, the source gives them in different places.

Legend:
RET = conditions: cited from earlier work
Ba/F3-KIF5B-RET = molecular target: T1, Ba/F3-KIF5B-RET (Homo sapiens, UniProt P07949); assay: Cell anti-proliferation (CellTiter-Glo), Ba/F3-KIF5B-RET cells; assay type: cell-based; conditions: cell viability, 72 h incubation, CellTiter-Glo
T1 construct: KIF5B (fusion partner, N-terminal part of kinesin-1 heavy chain, P33176); host or cells: Ba/F3 (murine pro-B cells); the other entry of the earlier key: KIF5B (P33176, Kinesin-1 heavy chain)
T1 sequence (P07949 713-1063 limits assumed): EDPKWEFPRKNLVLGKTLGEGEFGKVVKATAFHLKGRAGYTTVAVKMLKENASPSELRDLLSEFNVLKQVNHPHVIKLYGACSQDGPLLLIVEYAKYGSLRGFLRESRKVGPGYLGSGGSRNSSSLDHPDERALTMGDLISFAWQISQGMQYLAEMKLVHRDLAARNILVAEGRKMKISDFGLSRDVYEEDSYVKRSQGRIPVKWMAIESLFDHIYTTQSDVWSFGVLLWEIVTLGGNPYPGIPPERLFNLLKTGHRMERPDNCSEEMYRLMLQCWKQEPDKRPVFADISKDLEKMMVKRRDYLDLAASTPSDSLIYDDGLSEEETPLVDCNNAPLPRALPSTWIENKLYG
Procedure: (§1) Ba/F3-KIF5B-RET, Ba/F3-KIF5B-RET-V804L and Ba/F3-KIF5B-RET-V804M cells were constructed by PreceDo Pharmaceuticals Co., Ltd.
(§2) Ba/F3-KIF5B-RET, Ba/F3-KIF5B-RET-V804L and Ba/F3-KIF5B-RET-V804M medium: RPMI-1640+10% FBS+1% P/S.
(§3) A 1000×solution of the compound was prepared with DMSO, the compound was diluted to 20 times to obtain the final concentration with a growth medium, and 2 μl 1000×cpd was added to 98 μl growth medium.
(§4) Cells were centrifuged and resuspended with growth medium and cell counting was performed using a cell counter. The cell suspension was diluted with growth medium to the desired concentration. 95 uL of the diluted cell suspension was taken out to a 96-well plate. 5 μL of 20×compound solution was added to the 96-well plate to a final DMSO concentration of 0.1% per well. The 96-well plate was incubated for 72 h at 37° C. with 5% CO2.
(§5) The 96-well plate was equilibrated to room temperature before the assay, 50 μl of CellTiter-Glo® Reagent was added to each well, the cells were fully lysed by shaking for 2 minutes on a shaker, incubated for 10 minutes at room temperature, and Paradigm was used to detect and record the […] readings.
(§6) Cell viability was analyzed using Graphpad 7.0 software according to the formula Cell viability (CV %)=(RLU compound−RLU blank)/(RLU control−RLU blank)*100%, and the corresponding IC50 data were calculated, in Table 1, the following names are used: <10.00 nM=A; 10.01-50.0 nM=B; >50 nM=C.

Ba/F3-KIF5B-RET-V804L = molecular target: T2, Ba/F3-KIF5B-RET-V804L (Homo sapiens, UniProt P07949, V804L); assay: Cell anti-proliferation (CellTiter-Glo), Ba/F3-KIF5B-RET-V804L cells; assay type: cell-based; conditions: cell viability, 72 h incubation
T2 construct: KIF5B (fusion partner, N-terminal part of kinesin-1 heavy chain, P33176); host or cells: Ba/F3 (murine pro-B cells); the other entry of the earlier key: KIF5B (P33176, Kinesin-1 heavy chain)
T2 sequence (P07949 713-1063 V804L limits assumed): T1 sequence (P07949 713-1063 limits assumed) with V92L
Procedure: as §1, §2, §3, §4, §5, §6

Ba/F3-KIF5B-RET-V804M = molecular target: T3, Ba/F3-KIF5B-RET-V804M (Homo sapiens, UniProt P07949, V804M); assay: Cell anti-proliferation (CellTiter-Glo), Ba/F3-KIF5B-RET-V804M cells; assay type: cell-based; conditions: cell viability, 72 h incubation
T3 construct: KIF5B (fusion partner, N-terminal part of kinesin-1 heavy chain, P33176); host or cells: Ba/F3 (murine pro-B cells); the other entry of the earlier key: KIF5B (P33176, Kinesin-1 heavy chain)
T3 sequence (P07949 713-1063 V804M limits assumed): T1 sequence (P07949 713-1063 limits assumed) with V92M
Procedure: as §1, §2, §3, §4, §5, §6

Ba/F3-KIF5B-RET cells = assay: In vivo efficacy study, subcutaneous Ba/F3-KIF5B-RET tumor in nude mice; parameters: species or system BALB/c nude mice; conditions: 10 mg/kg P.O. BID x 3 weeks
Procedure: Cell culture: Ba/F3-KIF5B-RET cell line was cultured with 1640 medium (Biological Industries)+10%/f fetal bovine serum (BI)+1% double antibody (Penicillin Streptomycin solution, Corning, USA) at 37° C. with 5% CO2. Two passages were performed for one week. When the cell saturation was 80%-90% and the number reached the required level, the cells were collected, counted and inoculated.
Animals: BALB/c nude mice, female, 6-8 weeks of age, weighing 18-22 g. A total of 18 mice were required, provided by Beijing Vital River Laboratory Animal Technology Co., Ltd.
Tumor inoculation: 0.2 ml (2×106) Ba/F3-KIF5B-RET cells (plus stromal gel, volume ratio 1:1) were inoculated subcutaneously on the right posterior dorsum of each mouse, and group dosing was started when the average tumor volume reached about 150-200 mm^3.
Experimental index: Tumor volume and body weight were measured twice a week. Tumor volume was measured by vernier calipers with the formula TV=0.5 a×b2, where a is the long diameter of the tumor and b is the short diameter of the tumor.

Row | SMILES | overall remission rate (ORR) (RET; patients with medullary thyroid carcinoma) | overall remission rate (ORR) (RET; patients with non-small cell lung cancer) | overall remission rate (ORR) (RET; tumor patients with RET fusion and mutation) | IC50 (Ba/F3-KIF5B-RET) | IC50 (Ba/F3-KIF5B-RET-V804L) | IC50 (Ba/F3-KIF5B-RET-V804M) | Tumor Volume(mm^3) 0 day (Ba/F3-KIF5B-RET cells) | Tumor Volume(mm^3) 2 days (Ba/F3-KIF5B-RET cells) | Tumor Volume(mm^3) 5 days (Ba/F3-KIF5B-RET cells) | Tumor Volume(mm^3) 9 days (Ba/F3-KIF5B-RET cells) | Tumor Volume(mm^3) 12 days (Ba/F3-KIF5B-RET cells) | Tumor Volume(mm^3) 16 days (Ba/F3-KIF5B-RET cells) | Tumor Volume(mm^3) 19 days (Ba/F3-KIF5B-RET cells) | Tumor Volume(mm^3) 22 days (Ba/F3-KIF5B-RET cells)
1 | CO[C@]1(C(=O)N[C@@H](C)c2ccc(-n3cc(F)cn3)nc2)CC[C@H](c2nc(C)cc(Nc3cc(C)[nH]n3)n2)CC1 [BLU-667] | 40% | 50% | 45% |  |  |  |  |  |  |  |  |  |  | 
2 | CO[C@]1(C(=O)N[C@@H](C)c2ccc(-n3cc(F)cn3)nc2)CC[C@H](c2nc(Nc3cc(C)[nH]n3)c3ccn(C)c3n2)CC1 [Control Example 1, reference compound] |  |  |  | < 10 nM | < 10 nM | < 10 nM | 169.95 mm^3 | 157.73 mm^3 | 144.57 mm^3 | 185.92 mm^3 | 204.18 mm^3 | 272.83 mm^3 | 277.52 mm^3 | 292.41 mm^3
3 | CO[C@]1(C(=O)N[C@@H](C)c2ccc(-n3cc(F)cn3)nc2)CC[C@H](c2nc(Nc3cc(C)[nH]n3)c3cnn(C)c3n2)CC1 [Compound C1] |  |  |  | < 10 nM | < 10 nM | < 10 nM | 168.34 mm^3 | 162.57 mm^3 | 139.55 mm^3 | 189.12 mm^3 | 222.35 mm^3 | 203.41 mm^3 | 199.75 mm^3 | 199.64 mm^3
